# Reference: DBAASP
# Legend:
# Test in all cases: ≥ marks a high value that may be exact or a test limit, other limits are often not marked, values filed in µg/mL are converted to µM
# [1] = system: Acinetobacter baumannii MTCC 9829
# [2] = system: Alcaligenes faecalis MTCC 1937
# [3] = system: Alkalihalobacillus alcalophilus MTCC 860
# [4] = system: Bordetella bronchiseptica MTCC 6837
# [5] = system: Citrobacter freundii MTCC 1658
# [6] = system: Citrobacter koseri MTCC 1657
# [7] = system: Corynebacterium glutamicum MTCC 2679
# [8] = system: Enterococcus faecalis MTCC 439
# [9] = system: Escherichia coli K12 MG1655
# [10] = system: Haemophilus influenzae MTCC 621
# [11] = system: Klebsiella aerogenes MTCC 111
# [12] = system: Klebsiella oxytoca MTCC 2275
# [13] = system: Klebsiella pneumoniae MTCC 7407
# [14] = system: Pluralibacter gergoviae MTCC 3826
# [15] = system: Proteus mirabilis MTCC 3158
# [16] = system: Proteus vulgaris MTCC 1771
# [17] = system: Pseudomonas aeruginosa MTCC 3542
# [18] = system: Salmonella enterica MTCC 9844
# [19] = system: Salmonella enterica subsp. enterica serovar Typhimurium ATCC 14028
# [20] = system: Shigella boydii MTCC 11947
# [21] = system: Shigella flexneri MTCC 1457
# [22] = system: Staphylococcus aureus MTCC 3160
# [23] = system: Staphylococcus haemolyticus MTCC 3383
# [24] = system: Stenotrophomonas maltophilia MTCC 1890
# [25] = system: Vibrio cholerae MTCC 3904
# Escherichia coli J2210 = system: Escherichia coli J2210
# Escherichia coli JJ2487 = system: Escherichia coli JJ2487
# Escherichia coli JW0013 = system: Escherichia coli JW0013
# Escherichia coli MC1061 = system: Escherichia coli MC1061
# Escherichia coli O157:H7 = system: Escherichia coli O157:H7
# [26] = system: Salmonella enterica subsp. enterica serovar Enteritidis MH91989
# [27] = system: Salmonella typhimurium SL1344
structure (smiles),measurement,setting,value
CC(C)C[C@H](NC(=O)[C@H](CCCCN)NC(=O)[C@@H]1CCCN1C(=O)[C@H](CC(C)C)NC(=O)[C@H](CO)NC(=O)[C@H](CCCN=C(N)N)NC(=O)[C@H](C)NC(=O)[C@H](CCCCN)NC(=O)[C@H](CCCCN)NC(=O)[C@H](Cc1ccccc1)NC(=O)[C@H](Cc1ccccc1)NC(=O)[C@H](CCCCN)NC(=O)[C@H](CCCCN)NC(=O)[C@H](Cc1c[nH]c2ccccc12)NC(=O)[C@@H](N)CO)C(=O)N[C@@H](Cc1ccccc1)C(=O)O [SWKKFFKKARSLPKLF],MIC,[1],1.99 µM
same,MIC,[2],31.8 µM
same,MIC,[3],15.9 µM
same,MIC,[4],0.497 µM
same,MIC,[5],15.9 µM
same,MIC,[6],3.98 µM
same,MIC,[7],0.994 µM
same,MIC,[8],≥ 63.6 µM
same,MIC,[9],1.99 µM
same,MIC,[10],0.994 µM
same,MIC,[11],7.95 µM
same,MIC,[12],7.95 µM
same,MIC,[13],15.9 µM
same,MIC,[14],31.8 µM
same,MIC,[15],≥ 63.6 µM
same,MIC,[16],7.95 µM
same,MIC,[17],15.9 µM
same,MIC,[18],3.98 µM
same,MIC,[19],3.98 µM
same,MIC,[20],0.994 µM
same,MIC,[21],1.99 µM
same,MIC,[22],≥ 63.6 µM
same,MIC,[23],3.98 µM
same,MIC,[24],7.95 µM
same,MIC,[25],31.8 µM
CC[C@H](C)[C@H](NC(=O)[C@H](CCCN=C(N)N)NC(=O)[C@H](CCCN=C(N)N)NC(=O)[C@@H]1CCCN1C(=O)[C@@H]1CCCN1C(=O)[C@H](CCCN=C(N)N)NC(=O)[C@@H]1CCCN1C(=O)[C@H](CCCN=C(N)N)NC(=O)[C@@H]1CCCN1C(=O)[C@H](CCCCN)NC(=O)[C@H](Cc1ccc(O)cc1)NC(=O)[C@@H]1CCCN1C(=O)[C@@H]1CCCN1C(=O)[C@H](CCCCN)NC(=O)[C@H](CC(=O)O)NC(=O)[C@@H](N)C(C)C)C(=O)N[C@@H](Cc1ccc(O)cc1)C(=O)N[C@@H](CC(N)=O)C(=O)N[C@@H](CCCN=C(N)N)C(N)=O [VDKPPYKPRPRPPRRIYNR],MIC,Escherichia coli J2210,0.125 µM
same,MIC,Escherichia coli JJ2487,0.328 µM
same,MIC,Escherichia coli JW0013,0.249 µM
same,MIC,Escherichia coli MC1061,0.0623 µM
same,MIC,Escherichia coli O157:H7,0.998 µM
same,MIC,[26],0.249 µM
same,MIC,[27],0.249 µM
